Measured values taken from US20260297070A1, “CYCLIC [COMPOUND LEFT OUT] WRN INHIBITORS” (Nimbus Wadjet, Inc., priority 2023, published 2026).

Molecular target: T1, human Werner helicase (WRN-BV08, Uniprot Q14191, amino acids 517-1235 with L1074F point mutation) (Homo sapiens, UniProt Q14191, L1074F)
T1 construct: Uniprot Q14191, amino acids 517-1235 with L1074F point mutation; TEV-cleavable 8×His (C, cleaved yes); made in house; host or cells: Sf9 insect cells (baculovirus)
Experiment: WRN (BV08) ADP-Glo Assay
Type: biochemical
Settings: 0.15 nM WRN, 5 μM ATP, 0.1 nM DNA duplex, 15 min preincubation, 60 min at 25° C., pH 7.5, 1% DMSO; read-out: ADP-Glo_hWRN_IC50
How it was run: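 Helicase ATPase activity is measured at 25 °C over 60 min using 0.15 nM enzyme, 5 μM ATP and 0.1 nM DNA duplex, final DMSO 1%. ADP production is detected by luminescence, with IC50 derived by curve fitting.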

T1 sequence (Q14191 with tags, fused parts or gaps L1074F limits assumed): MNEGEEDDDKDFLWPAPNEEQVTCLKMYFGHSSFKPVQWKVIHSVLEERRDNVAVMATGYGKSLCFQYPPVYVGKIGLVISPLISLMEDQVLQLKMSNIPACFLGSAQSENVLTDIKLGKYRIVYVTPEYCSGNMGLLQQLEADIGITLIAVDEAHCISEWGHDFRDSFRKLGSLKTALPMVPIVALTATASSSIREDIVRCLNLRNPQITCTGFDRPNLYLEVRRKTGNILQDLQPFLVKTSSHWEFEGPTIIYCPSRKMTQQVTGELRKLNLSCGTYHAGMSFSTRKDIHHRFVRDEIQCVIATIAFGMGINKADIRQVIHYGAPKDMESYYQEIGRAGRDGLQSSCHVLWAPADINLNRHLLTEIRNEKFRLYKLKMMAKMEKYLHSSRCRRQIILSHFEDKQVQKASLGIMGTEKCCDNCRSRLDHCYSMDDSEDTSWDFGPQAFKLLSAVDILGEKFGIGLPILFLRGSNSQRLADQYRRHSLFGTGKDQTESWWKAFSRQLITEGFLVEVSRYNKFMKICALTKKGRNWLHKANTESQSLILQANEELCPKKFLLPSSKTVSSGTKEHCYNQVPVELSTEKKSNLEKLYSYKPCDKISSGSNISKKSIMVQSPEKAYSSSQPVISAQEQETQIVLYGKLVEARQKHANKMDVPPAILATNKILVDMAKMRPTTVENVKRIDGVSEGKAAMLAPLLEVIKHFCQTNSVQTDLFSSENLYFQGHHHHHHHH

IC50 | SMILES
< 0.5 µM | COC(C(=O)N(Cc1ccnc(C(C)(C)O)c1)C1C=CS(=O)(=O)C1)c1ccc(-c2ccc(F)cc2)cc1F (stereo not shown) [I-28, 2-{3,4′-difluoro-[1,1′-biphenyl]-4-yl}-N-(1,1-dioxo-2,3-dihydro-1lambda6-thiophen-3-yl)-N-{[2-(2-hydroxypropan-2-yl)pyridin-4-yl]methyl}-2-methoxyacetamide]
0.5 to 5 µM | CNc1cc(CN(C(=O)Cc2ccc(-n3cccc3C)cc2F)C2C=CS(=O)(=O)C2)ccn1 (stereo not shown) [I-142, N-(1,1-dioxo-2,3-dihydro-1lambda6-thiophen-3-yl)-2-[2-fluoro-4-(2-methyl-1H-pyrrol-1-yl)phenyl]-N-{[2-(methylamino)pyridin-4-yl]methyl}acetamide]
0.5 to 5 µM | CC(C)(O)c1cc(CN(C(=O)Cc2ccc(C(F)(F)F)cc2)C2C=CS(=O)(=O)C2)ccn1 (stereo not shown) [I-135, N-(1,1-dioxo-2,3-dihydro-1lambda6-thiophen-3-yl)-N-{[2-(2-hydroxypropan-2-yl)pyridin-4-yl]methyl}-2-[4-(trifluoromethyl)phenyl]acetamide]
5 to 10 µM | COc1cc(CN(C(=O)C(OC2CCN(S(C)(=O)=O)CC2)c2ccc(-c3ccc(F)c(F)c3)cc2F)[C@@H]2C=CS(=O)(=O)C2)ccn1 (stereo partly drawn) [I-687, N-[(3R)-1,1-dioxo-2,3-dihydro-1lambda6-thiophen-3-yl]-2-[(1-methanesulfonylpiperidin-4-yl)oxy]-N-[(2-methoxypyridin-4-yl)methyl]-2-{3,3′,4′-trifluoro-[1,1′-biphenyl]-4-yl}acetamide]
> 50 µM | O=C([C@H]1[C@@H]2CC(F)(F)C[C@@H]21)N(Cc1ccncc1)C1C=CS(=O)(=O)C1 (stereo partly drawn) [I-617, (1R,5S,6R)-N-(1,1-dioxo-2,3-dihydro-1lambda6-thiophen-3-yl)-3,3-difluoro-N-[(pyridin-4-yl)methyl]bicyclo[3.1.0]hexane-6-carboxamide]
0.5 to 5 µM | COc1cc(CN(C(=O)C(OCCS(C)(=O)=O)c2ccc(-c3ccc(F)c(F)c3)cc2F)[C@@H]2C=CS(=O)(=O)C2)ccn1 (single isomer, unassigned) [I-702, (2R*)-N-[(3R)-1,1-dioxo-2,3-dihydro-1lambda6-thiophen-3-yl]-2-(2-methanesulfonylethoxy)-N-[(2-methoxypyridin-4-yl)methyl]-2-{3,3′,4′-trifluoro-[1,1′-biphenyl]-4-yl}acetamide]
< 0.5 µM | CC(C)(O)c1cc(CN(C(=O)Cc2ccc(S(F)(F)(F)(F)F)cc2)[C@@H]2C=CS(=O)(=O)C2)ccn1 [I-16, (R)—N-(1,1-dioxido-2,3-dihydrothiophen-3-yl)-N-((2-(2-hydroxypropan-2-yl)pyridin-4-yl)methyl)-2-(4-(pentafluoro-λ^6-sulfaneyl)phenyl)acetamide]
0.5 to 5 µM | O=C(c1ccc(CN(C(=O)Cc2ccc(-c3ccc(F)c(F)c3)cc2F)C2C=CS(=O)(=O)C2)cc1)N1CCOCC1 (stereo not shown) [I-780, N-(1,1-dioxo-2,3-dihydro-1lambda6-thiophen-3-yl)-N-{[4-(morpholine-4-carbonyl)phenyl]methyl}-2-{3,3′,4′-trifluoro-[1,1′-biphenyl]-4-yl}acetamide]
0.5 to 5 µM | O=C(Cn1cc(-c2ccccc2)cn1)N(Cc1ccncc1)C1C=CS(=O)(=O)C1 (stereo not shown) [I-186, N-(1,1-dioxo-2,3-dihydro-1lambda6-thiophen-3-yl)-2-(4-phenyl-1H-pyrazol-1-yl)-N-[(pyridin-4-yl)methyl]acetamide]
5 to 10 µM | O=C(Cc1ccc(OC(F)(F)F)cc1)N(Cc1ccncc1)C1C=CS(=O)(=O)C1 (stereo not shown) [I-252, N-(1,1-dioxo-2,3-dihydro-1lambda6-thiophen-3-yl)-N-[(pyridin-4-yl)methyl]-2-[4-(trifluoromethoxy)phenyl]acetamide]
0.5 to 5 µM | CC(C)(O)c1cc(CN(C(=O)C(OCc2ccccc2)c2ccc(-c3ccc(F)c(F)c3)cc2F)[C@@H]2C=CS(=O)(=O)C2)ccn1 (single isomer, unassigned) [I-814]
< 0.5 µM | CC(C)(O)c1cc(CN(C(=O)Cc2ccc(-c3cccc(Cl)c3)cc2F)C2C=CS(=O)(=O)C2)ccn1 (stereo not shown) [I-70, 2-{3′-chloro-3-fluoro-[1,1′-biphenyl]-4-yl}-N-(1,1-dioxo-2,3-dihydro-1lambda6-thiophen-3-yl)-N-{[2-(2-hydroxypropan-2-yl)pyridin-4-yl]methyl}acetamide]
< 0.5 µM | O=C(Cn1cc(-c2cc(F)c(F)c(F)c2)cn1)N(Cc1ccc(OCc2ccncc2)cc1)C1C=CS(=O)(=O)C1 (stereo not shown) [I-783, N-(1,1-dioxo-2,3-dihydro-1lambda6-thiophen-3-yl)-N-({4-[(pyridin-4-yl)methoxy]phenyl}methyl)-2-[4-(3,4,5-trifluorophenyl)-1H-pyrazol-1-yl]acetamide]
> 50 µM | O=C(Cc1ccc(-n2cccc2)cc1)N(c1ccccc1)C1C=CS(=O)(=O)C1 (stereo not shown) [I-421, N-(1,1-dioxo-2,3-dihydro-1lambda6-thiophen-3-yl)-N-phenyl-2-[4-(1H-pyrrol-1-yl)phenyl]acetamide]
0.5 to 5 µM | C#CCCCC(=O)N1CCN(Cc2ccc(CN(C(=O)Cc3ccc(-n4cccc4)cc3F)C3C=CS(=O)(=O)C3)cc2)CC1 (stereo not shown) [I-211, N-(1,1-dioxo-2,3-dihydro-1lambda6-thiophen-3-yl)-2-[2-fluoro-4-(1H-pyrrol-1-yl)phenyl]-N-[(4-{[4-(hex-5-ynoyl)piperazin-1-yl]methyl}phenyl)methyl]acetamide]
0.5 to 5 µM | N#Cc1csc(CN(C(=O)Cc2ccc(-n3cccc3)cc2)C2C=CS(=O)(=O)C2)n1 (stereo not shown) [I-190, N-[(4-cyano-1,3-thiazol-2-yl)methyl]-N-(1,1-dioxo-2,3-dihydro-1lambda6-thiophen-3-yl)-2-[4-(1H-pyrrol-1-yl)phenyl]acetamide]
0.5 to 5 µM | Cc1cccn1-c1ccc(CC(=O)N(Cc2ccncc2)C2C=CS(=O)(=O)C2)cc1 (stereo not shown) [I-206, N-(1,1-dioxo-2,3-dihydro-1lambda6-thiophen-3-yl)-2-[4-(2-methyl-1H-pyrrol-1-yl)phenyl]-N-[(pyridin-4-yl)methyl]acetamide]
0.5 to 5 µM | O=C(Cc1ccc(S(F)(F)(F)(F)F)cc1)N(Cc1nnc(C2CC2)s1)C1C=CS(=O)(=O)C1 (stereo not shown) [I-645, N-[(5-cyclopropyl-1,3,4-thiadiazol-2-yl)methyl]-N-(1,1-dioxo-2,3-dihydro-1lambda6-thiophen-3-yl)-2-[4-(pentafluoro-lambda6-sulfanyl)phenyl]acetamide]
> 50 µM | O=C([C@@H]1[C@@H]2CC[C@@]1(c1cccc(Br)c1)C2)N(Cc1ccncc1)C1C=CS(=O)(=O)C1 (mixture of isomers) [I-755, rac-(1R,4R,5R)-1-(3-bromophenyl)-N-(1,1-dioxo-2,3-dihydro-1lambda6-thiophen-3-yl)-N-[(pyridin-4-yl)methyl]bicyclo[2.1.1]hexane-5-carboxamide]
< 0.5 µM | COc1cc(CN(C(=O)Cn2cc(-c3ccc(F)cc3)cn2)C2C=CS(=O)(=O)C2)ccn1 (stereo not shown) [I-68, N-(1,1-dioxo-2,3-dihydro-1lambda6-thiophen-3-yl)-2-[4-(4-fluorophenyl)-1H-pyrazol-1-yl]-N-[(2-methoxypyridin-4-yl)methyl]acetamide]
> 50 µM | O=C(Cc1ccc(S(F)(F)(F)(F)F)cc1)N(Cc1nc(C(F)F)cs1)C1C=CS(=O)(=O)C1 (stereo not shown) [I-729, N-{[4-(difluoromethyl)-1,3-thiazol-2-yl]methyl}-N-(1,1-dioxo-2,3-dihydro-1lambda6-thiophen-3-yl)-2-[4-(pentafluoro-lambda6-sulfanyl)phenyl]acetamide]
> 50 µM | O=C(C1C2CN(CC(F)(F)F)CC21)N(Cc1ccncc1)C1C=CS(=O)(=O)C1 (stereo not shown) [I-618, N-(1,1-dioxo-2,3-dihydro-1lambda6-thiophen-3-yl)-N-[(pyridin-4-yl)methyl]-3-(2,2,2-trifluoroethyl)-3-azabicyclo[3.1.0]hexane-6-carboxamide]
10 to 50 µM | O=C(Cc1cc(-c2ccccc2)on1)N(Cc1ccncc1)C1C=CS(=O)(=O)C1 (stereo not shown) [I-354, N-(1,1-dioxo-2,3-dihydro-1lambda6-thiophen-3-yl)-2-(5-phenyl-1,2-oxazol-3-yl)-N-[(pyridin-4-yl)methyl]acetamide]
> 50 µM | N#Cc1ccc(CC(=O)N(Cc2ccncc2)C2C=CS(=O)(=O)C2)cc1 (stereo not shown) [I-513, 2-(4-cyanophenyl)-N-(1,1-dioxo-2,3-dihydro-1lambda6-thiophen-3-yl)-N-[(pyridin-4-yl)methyl]acetamide]
0.5 to 5 µM | O=C(Cc1ccc(S(F)(F)(F)(F)F)cc1)N(CCc1nc(C2CC2)cs1)C1C=CS(=O)(=O)C1 (stereo not shown) [I-629, N-[2-(4-cyclopropyl-1,3-thiazol-2-yl)ethyl]-N-(1,1-dioxo-2,3-dihydro-1lambda6-thiophen-3-yl)-2-[4-(pentafluoro-lambda6-sulfanyl)phenyl]acetamide]
< 0.5 µM | CN(C)C(=O)C(C(=O)N(Cc1nc(C2CC2)cs1)C1C=CS(=O)(=O)C1)c1ccc(-c2ccc(F)c(F)c2)cc1F (stereo not shown) [I-25, N′-[(4-cyclopropyl-1,3-thiazol-2-yl)methyl]-N′-(1,1-dioxo-2,3-dihydro-1lambda6-thiophen-3-yl)-N,N-dimethyl-2-{3,3′,4′-trifluoro-[1,1′-biphenyl]-4-yl}propanediamide]
0.5 to 5 µM | COc1cc(CN(C(=O)Cc2ccc(S(F)(F)(F)(F)F)cc2)C2C=CS(=O)(=O)C2)ncn1 (stereo not shown) [I-600, N-(1,1-dioxo-2,3-dihydro-1lambda6-thiophen-3-yl)-N-[(6-methoxypyrimidin-4-yl)methyl]-2-[4-(pentafluoro-lambda6-sulfanyl)phenyl]acetamide]
0.5 to 5 µM | CC(C)(O)c1cc(CN(C(=O)C(c2ccc(-c3ccc(F)c(F)c3)cc2F)n2ccnn2)C2C=CS(=O)(=O)C2)ccn1 (single isomer, unassigned) [I-802, (2R*)-N-[(3R**)-1,1-dioxo-2,3-dihydro-1lambda6-thiophen-3-yl]-N-{[2-(2-hydroxypropan-2-yl)pyridin-4-yl]methyl}-2-(1H-1,2,3-triazol-1-yl)-2-{3,3′,4′-trifluoro-[1,1′-biphenyl]-4-yl}acetamide]
